# Test system: ruminal microorganisms
# Experiment: dual-flow continuous culture fermenters simulating rumen fermentation (Example 2)
# Assay type: cell-based, Holstein dairy cows
# Settings: NPN 0.51 wt. % urea or 0.55 wt. % UB of diet DM
# Description: In this example, an in vitro assay was performed using dual-flow continuous culture fermenters, aiming to simulate rumen fermentation.
# Eight 1320 ml dual-flow continuous culture fermenters were used in two replicated periods. Each period consisted out of 5 days for adaptation of the ruminal fluid to the treatments and 3 days for sampling. On the first day of each period, all fermenters were inoculated with undiluted ruminal fluid filtered through two layers of cheesecloth to remove the feed particles. The fermentation conditions were constant, i.e. • a temperature of 39° C., • a pH of 6.4±0.05 by infusion of 3 N HCl or 5 N NaOH, • anaerobiosis with continued infusion of N2 gas at a rate of 40 ml/min, and • continued infusion of artificial saliva to obtain liquid and solid dilution rates of 10%/h and 5%/h, respectively.
# The fermenters were fed 95 grams/day of dry matter of a diet formulated to meet or exceed current nutrients recommendations for lactating dairy cows, i.e. • 166 g/kg crude protein (CP), • 323 g/kg neutral detergent fiber (NDF), and • 201 g/kg acid detergent fiber (ADF),
# And were fed in three daily administrations, i.e. at 7, 15 and 23 o'clock with a forage: concentrate diet in a range of 53:47.
# Ruminal fluid was taken from two Holstein dairy cows fitted with ruminal cannulas fed with a 60:40 forage:concentrate diet with alfalfa and cracked grain (11 kg dry matter/cow/day). The afternoon before the ruminal extraction, the ruminant animals were not fed.
# The NPN-dietary treatments were as follows: • Control: basal diet to which 0.51 wt. % urea was added, with wt. % on dry matter basis, • Diet: basal diet to which 0.55 wt. % of the mixture according to the present disclosure, with composition as in example 1, was added, with wt. % on dry matter basis.
# On the second day of sampling, 4 ml of filtered fermenter fluid was taken 2 hours after the morning feeding to determine VFA-concentrations.
# During sampling days, the collection vessels were maintained at 4° C. to prevent microbial activity. Solid and liquid effluents from 3 sampling days were composited and mixed within the fermenter and homogenized. Subsamples were taken for the analyses of the volatile fatty acids (VFA). The remainder of the sample was lyophilized (freeze drying) and the dry samples were analyzed for DM, ash, N and purines to calculate bacterial nitrogen and organic matter content (OM).
# Bacterial cells were obtained from the fermenter flasks the last day of each experimental period. Solid and liquid associated bacteria were isolated using a combination several detachment procedures selected to obtain the maximum detachment without affecting the cell integrity. The bacterial cells were lyophilized and the dry samples were analyzed for dry matter (DM), ash, N and purines to calculate bacterial nitrogen.
# Effluent dry matter (DM) was determined by lyophilizing 300 ml aliquots in triplicate. The DM content of the diets and bacterial samples were determined by drying samples for 24 hours in an 103° C. forced air oven (see AOAC, 1990; method 950.01).
# Dry samples of diets, effluents and bacteria were ashed overnight at 550° C. in a muffle furnace (see AOAC, 1990, method 976.05) and organic matter (OM) was determined by difference. Total N of diets, effluents and bacterial samples were determined by a Kjeldhal method (AOAC, 1990; method 976.05). Sample crude protein (CP) was calculated as N×6.25. Effluent CP was determined in liquid samples. Crude protein degradation was calculated as the difference between CP in the diet minus CP in the effluent and expressed as wt. % of DM. The EMPS was determined by dividing bacterial N by fermented organic matter.
# The fiber components of the diets and the effluents were analyzed sequentially using a thermostable alpha-amylase and sodium sulfite and expressed without residual ash.
# The samples for the VFA-analysis were prepared as described by Jouany, J. P., and J. Senaud. […]
smiles,measurement,value
"NC(N)=O [Urea, urea]",Acetate to propionate ratio,3.5
same,CP degradation,47.7 % of dry matter
same,EMPS,35.7 g bacterial N/kg of fermented organic matter
same,True digestibility DM,53.53 wt. % of DM
same,True digestibility OM,52.95 wt. % of DM
same,VFA Acetate,62.92
same,VFA Propionate,18.18
